A short description of test [1]: Antimigraine activity in bovine citreated platelet assessed as inhibition of [14C]serotonin release after 6 mins by scintillation counting. Format: functional, cell-based. The conditions noted are these: Bos taurus, 0.1 h.
A short description of test [2]: Antimigraine activity in human citreated platelet assessed as inhibition of [14C]serotonin release after 6 mins by scintillation counting. Format: functional, cell-based. The conditions noted are these: 0.1 h.
Test [3] in a line: Antimigraine activity in ADP-stimulated bovine citreated platelet assessed as inhibition of [14C]serotonin release at 100 uM after 6 mins by scintillation counting. It is filed as functional. Particulars: Bos taurus, 0.1 h.

Counter-ions that a name gives are not always drawn.

Take `COc1ccc(CCN(C)CCCC(C#N)(c2ccc(OC)c(OC)c2)C(C)C)cc1OC` (stereo not given) [VERAPAMIL HYDROCHLORIDE]: the IC50 in test [1] was 578 µM; in test [2], 770 µM. Turning to `C=C1C(=O)O[C@@H]2C[C@@]3(C)CCCC(=C)[C@@H]3C[C@H]12` [ISOALANTOLACTONE], in test [1], the IC50 was more than 516 µM. For `C=C1C(=O)O[C@@H]2C3O[C@]3(C)CC/C=C(\C)CC[C@@H]12` (stereo not given in full), the IC50 in test [2] is 5.64 µM. For the same compound, the inhibition at 100 µM in test [3] is 20.3%.

The values above are taken from ChEMBL document CHEMBL1149729, “A bioassay for inhibition of serotonin release from bovine platelets” (J Nat Prod, 1992).
